Results on 13 compounds are retold here after PubChem BioAssay (NCI).

The structures appear in SMILES notation. Where “and” joins values, the source holds several entries; their conditions need not be identical. Equal values may be shown once.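 Growth conditions: 96-well plates. Treatment: test compound, 48 hours, 5 concentrations. Analysis: linear interpolation between bracketing concentrations; unreached endpoints set to highest concentration. GI50 is the concentration that inhibits growth by half. At the TGI there is no net growth.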

Some test systems named below: HOP-62 NSCLC; HOP-18 NSCLC; HCC-2998 colon; SF-539 CNS; XF 498 CNS; SNB-78 CNS; HOP-92 NSCLC; DLD-1 colon; DMS 114 small cell lung.
Holding throughout (experiment): NCI anticancer screen, dose series, 48 h

As for `CNC(=S)/N=C(\N)N(C)C`, the TGI with HOP-62 NSCLC, with HOP-18 NSCLC, in the assay with HCC-2998 colon, with SF-539 CNS, with XF 498 CNS and with SNB-78 CNS was over 100 µM throughout. The TGI with HOP-92 NSCLC, with DLD-1 colon and with DMS 114 small cell lung was over 100 µM throughout.
Consider `COc1cc(Cc2nccc3cc(OC)c(OC)cc23)c(C(C)=O)cc1OC`, for which the GI50 in the assay with HOP-62 NSCLC is 101 µM; with HOP-18 NSCLC, 115 µM; in the assay on SF-539 CNS it was 85.3 µM and 19.9 µM; in the assay with HOP-92 NSCLC, 99.3 µM and > 750 µM; with DLD-1 colon it was 118 µM; in the assay on DMS 114 small cell lung, 3.02 µM. The TGI is 135 µM and 394 µM with HOP-62 NSCLC; > 300 µM and 252 µM in the assay with HOP-18 NSCLC; 300 µM and > 750 µM with HCC-2998 colon; > 94.9 µM and 66.1 µM in the assay on SF-539 CNS; 300 µM in the assay on XF 498 CNS; 214 µM in the assay with SNB-78 CNS. In addition, the TGI with HOP-92 NSCLC is 267 µM and > 750 µM; in the assay with DLD-1 colon, 169 µM and 351 µM; with DMS 114 small cell lung, 300 µM and 164 µM.
`COc1cc2[nH]c3c(c2cc1OC)CCN[C@]31CC[C@]2(CC3c4c(cc(OC)c(O)c42)CCN3C)C[C@H]1OC` (stereo partly drawn): the TGI in the assay with HOP-62 NSCLC stood at 48 µM; in the assay with HOP-18 NSCLC, 46.7 µM; with HCC-2998 colon, 29.8 µM; in the assay with SF-539 CNS, 31.5 µM; with XF 498 CNS it was 29.8 µM; with SNB-78 CNS it was 60.4 µM. Moreover, the TGI in the assay with HOP-92 NSCLC came out at 75.7 µM; in the assay on DLD-1 colon, 81 µM; with DMS 114 small cell lung, 31.4 µM.
On to `Cc1[nH]c(=O)nc2[nH][nH]c(=O)c12`, for which the TGI in the assay with HOP-62 NSCLC, in the assay with HOP-18 NSCLC, in the assay on SF-539 CNS, with HOP-92 NSCLC and with DMS 114 small cell lung was over 100 µM each time.
On to `O=C(O)CNS(=O)(=O)c1ccc(NC(=O)c2ccc([N+](=O)[O-])cc2)cc1`, for which the TGI with HOP-18 NSCLC, with HCC-2998 colon, in the assay on SF-539 CNS, with XF 498 CNS, in the assay with HOP-92 NSCLC and with DLD-1 colon was over 100 µM in each case.
On to `O=C(c1cccc2ccccc12)N1CCC(C2CCN(C(=O)c3cccc4ccccc34)CC2)CC1`, for which the TGI in the assay with HOP-62 NSCLC, with HOP-18 NSCLC, in the assay with SF-539 CNS, in the assay with XF 498 CNS, with SNB-78 CNS and in the assay with HOP-92 NSCLC was over 100 µM each time. The TGI in the assay with DLD-1 colon and in the assay with DMS 114 small cell lung was over 100 µM throughout.
In the case of `Cc1nnc(NS(=O)(=O)c2ccc(N=Nc3cc(N=Nc4ccc(S(=O)(=O)Nc5nnc(C)s5)cc4)c4c(NC(=O)C(Cl)Cl)cccc4c3OC(=O)C(Cl)Cl)cc2)s1` (tested in a mixture with another compound), the TGI was over 100 µM with HOP-62 NSCLC; 62.1 µM in the assay with HCC-2998 colon; 43 µM with SF-539 CNS; 92.9 µM in the assay with XF 498 CNS; over 100 µM in the assay with SNB-78 CNS; over 100 µM in the assay on HOP-92 NSCLC. Further, the TGI is 42.9 µM in the assay with DLD-1 colon and 62.5 µM in the assay on DMS 114 small cell lung.
With `O=C(/C=C/c1ccc(Cl)c(Cl)c1)c1ccc2ccccc2c1`, the TGI in the assay with HOP-62 NSCLC, in the assay on HOP-18 NSCLC, in the assay on HCC-2998 colon, in the assay with SF-539 CNS, with SNB-78 CNS and in the assay with HOP-92 NSCLC was over 100 µM in each case. Besides, the TGI with DLD-1 colon and in the assay on DMS 114 small cell lung was over 100 µM in each case.
Take `CCOC(=O)C(=O)Nc1ccccc1CC`: the TGI with HOP-62 NSCLC, in the assay on HOP-18 NSCLC, in the assay on HCC-2998 colon, with SF-539 CNS, with XF 498 CNS and in the assay on HOP-92 NSCLC was over 100 µM throughout. The TGI with DLD-1 colon and with DMS 114 small cell lung was over 100 µM throughout.
As to `CCCC1=C(CC)C(C(=O)Nc2c(C)cccc2C)=NC(S)N1` (stereo not drawn), the TGI in the assay on HOP-62 NSCLC, in the assay with HOP-18 NSCLC, in the assay on SF-539 CNS, in the assay on XF 498 CNS, in the assay on SNB-78 CNS and in the assay on HOP-92 NSCLC was over 100 µM in each case. Further, the TGI with DLD-1 colon and in the assay with DMS 114 small cell lung was over 100 µM in each case.
Consider `O=C(CCc1nc(=S)[nH][nH]1)Nc1ccccc1Cl`, for which the TGI in the assay on HOP-62 NSCLC, in the assay on HOP-18 NSCLC, in the assay with HCC-2998 colon, in the assay with SF-539 CNS, in the assay on XF 498 CNS and in the assay with SNB-78 CNS was over 100 µM each time. Further, the TGI in the assay on HOP-92 NSCLC, in the assay on DLD-1 colon and in the assay with DMS 114 small cell lung was over 100 µM in each case.
As for `Clc1cc(Cl)c2ns[s+]c2c1Cl`, the TGI is over 100 µM with HOP-62 NSCLC; over 100 µM in the assay with HOP-18 NSCLC; over 100 µM in the assay on SF-539 CNS; over 100 µM in the assay with XF 498 CNS; 14.8 µM in the assay with SNB-78 CNS; over 100 µM with DLD-1 colon.
`CCOC(=O)N[C@@H]1C(CC(=O)OC)O[C@H]2OC(C)(C)O[C@H]21` (stereo partly drawn): the TGI with HOP-62 NSCLC, in the assay on HOP-18 NSCLC, in the assay on HCC-2998 colon, in the assay with SF-539 CNS, in the assay with XF 498 CNS and with SNB-78 CNS was over 100 µM throughout. Also, the TGI with HOP-92 NSCLC, with DLD-1 colon and in the assay with DMS 114 small cell lung was over 100 µM throughout.
